Assay results reported in patent US20100267561A1, “HERBICIDAL PYRIDAZINONE DERIVATIVES” (priority 2007, published 2010).

Columns and labels:
Type in all cases: in vivo
[1] = system: blackgrass (Alopecurus myosuroides); test: Test B pre-/postemergence plant response; details: for Blackgrass plant response rating: 8 g ai/ha
Summary of the method: (§1)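 Preemergence and postemergence (plants 2-18 cm, 1- to 4-leaf stage) applications used test chemicals in a non-phytotoxic solvent with surfactant. Plants were held in a greenhouse 13 to 15 days, then rated visually against controls on a 0-100 scale (0 no effect, 100 complete control).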

[2] = system: cocklebur (Xanthium strumarium); test: Test B pre-/postemergence plant response; details: for Cocklebur plant response rating: 8 g ai/ha
Summary of the method: as §1

[3] = system: yellow nutsedge (Cyperus esculentus); test: Test B pre-/postemergence plant response; details: for Nutsedge, Yellow plant response rating: 8 g ai/ha
Summary of the method: as §1

[4] = system: common (oilseed) sunflower (Helianthus annuus); test: Test B pre-/postemergence plant response; details: Preemergence
Summary of the method: as §1

wild oat (Avena fatua) = test: Test B pre-/postemergence plant response; details: for Oat, Wild plant response rating: 8 g ai/ha
Summary of the method: as §1

[5] = system: johnsongrass (Sorghum halepense); test: Test B pre-/postemergence plant response; details: for Johnsongrass plant response rating: 8 g ai/ha
Summary of the method: as §1

[6] = system: catchweed bedstraw (Galium aparine); test: Test B pre-/postemergence plant response; details: Preemergence
Summary of the method: as §1

[7] = system: goosegrass (Eleusine indica); test: Test B pre-/postemergence plant response; details: for Goosegrass plant response rating: 8 g ai/ha
Summary of the method: as §1

[8] = system: wheat (Triticum aestivum); test: Test B pre-/postemergence plant response; details: for Wheat plant response rating: 8 g ai/ha
Summary of the method: as §1

[9] = system: common ragweed (Ambrosia elation); test: Test B pre-/postemergence plant response; details: for Ragweed plant response rating: 8 g ai/ha
Summary of the method: as §1

[10] = system: giant foxtail (Setaria faberii); test: Test B pre-/postemergence plant response; details: for Foxtail, Giant plant response rating: 8 g ai/ha
Summary of the method: as §1

[11] = system: lambsquarters (Chenopodium album); test: Test B pre-/postemergence plant response; details: for Lambsquarters plant response rating: 8 g ai/ha
Summary of the method: as §1

[12] = system: large crabgrass (Digitaria sanguinalis); test: Test B pre-/postemergence plant response; details: for Crabgrass, Large plant response rating: 8 g ai/ha
Summary of the method: as §1

[13] = system: winter barley (Hordeum vulgare); test: Test B postemergence plant response; details: Postemergence, scale 0 to 100, 0 no effect, 100 complete control
Summary of the method: (§2)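 Postemergence spray on 1- to 4-leaf plants (2–18 cm); greenhouse 13–15 d; visual rating vs controls, 0 = no effect, 100 = complete control; dash = not tested.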

[14] = system: windgrass (Apera spica-venti); test: Test B postemergence plant response; details: for Plant response rating, Windgrass: Postemergence
Summary of the method: as §2

[15] = Postemergence, 16 g ai/ha, scale 0 to 100
[16] = Postemergence, 31 g ai/ha, scale 0 to 100, 0 no effect, 100 complete control
[17] = Postemergence, 62 g ai/ha, scale 0 to 100, 0 no effect, 100 complete control
[18] = Preemergence, 16 g ai/ha, scale 0 to 100 (0 no effect, 100 complete control)
[19] = Preemergence, 31 g ai/ha, 0 to 100 scale, 0 no effect, 100 complete control
[20] = Preemergence, 62 g ai/ha, scale 0 to 100
[21] = Preemergence, 31 g ai/ha, scale 0 to 100 (0 no effect, 100 complete control)
[22] = 16 g ai/ha, scale 0 to 100 (0 no effect, 100 complete control)

CCc1cc(-c2ccc(Cl)cc2)nn1-c1c(OC(=O)OC(C)C)cnn(C)c1=O [Compound 41]
80: Goosegrass plant response rating ([7]; postemergence, 0-100 scale) | Plant response rating, Goosegrass [7, 15] | Wheat plant response rating ([8]; postemergence, 0-100 scale)
85: Blackgrass plant response rating ([1]; postemergence, 0-100 scale) | Plant response rating, Oat, Wild (wild oat (Avena fatua); [18]) | Plant response rating, Goosegrass [7, 16] | Plant response rating, Wheat [8, 15] | Plant response rating, Wheat [8, 17] | Plant response rating, Crabgrass, Large [12, 15] | Plant response rating, Windgrass ([14]; 62 g ai/ha, scale 0 to 100, 0 no effect, 100 complete control)
60: Plant response rating, Johnsongrass [5, 16] | Plant response rating, Wheat [8, 21] | Plant response rating, Windgrass ([14]; 16 g ai/ha, scale 0 to 100)
20: Johnsongrass plant response rating ([5]; Preemergence, scale 0 to 100) | Plant response rating, Crabgrass, Large [12, 20]
65: Plant response rating, Johnsongrass [5, 18]
30: Windgrass plant response rating ([14]; 8 g ai/ha, postemergence, 0-100 scale)
70: Oat, Wild plant response rating (wild oat (Avena fatua); Preemergence, scale 0 to 100) | Plant response rating, Johnsongrass [5, 19] | Crabgrass, Large plant response rating ([12]; postemergence, 0-100 scale)
0: Cocklebur plant response rating ([2]; postemergence, 0-100 scale) | Plant response rating, Cocklebur [2, 15] | Plant response rating, Cocklebur [2, 16] | Plant response rating, Cocklebur [2, 17] | Plant response rating, Cocklebur [2, 18] | Plant response rating, Cocklebur [2, 19] | Plant response rating, Cocklebur [2, 20] | Cocklebur plant response rating ([2]; Preemergence, scale 0 to 100) | Nutsedge, Yellow plant response rating ([3]; postemergence, 0-100 scale) | Plant response rating, Nutsedge, Yellow [3, 15] | Plant response rating, Nutsedge, Yellow [3, 16] | Plant response rating, Nutsedge, Yellow [3, 17] | Plant response rating, Nutsedge, Yellow [3, 18] | Plant response rating, Nutsedge, Yellow [3, 21] | Plant response rating, Nutsedge, Yellow [3, 20] | Nutsedge, Yellow plant response rating ([3]; Preemergence, scale 0 to 100) | Plant response rating, Sunflower [4, 22] | Plant response rating, Sunflower ([4]; 31 g ai/ha, scale 0 to 100 (0 no effect, 100 complete control)) | Plant response rating, Sunflower ([4]; 62 g ai/ha, scale 0 to 100) | Sunflower plant response rating ([4]; 8 g ai/ha, scale 0 to 100) | Plant response rating, Galium [6, 22] | Galium plant response rating ([6]; 8 g ai/ha, scale 0 to 100) | Plant response rating, Goosegrass [7, 18] | Plant response rating, Goosegrass [7, 19] | Plant response rating, Goosegrass [7, 20] | Goosegrass plant response rating ([7]; Preemergence, scale 0 to 100) | Ragweed plant response rating ([9]; postemergence, 0-100 scale) | Plant response rating, Ragweed [9, 15] | Plant response rating, Ragweed [9, 16] | Plant response rating, Ragweed [9, 17] | Plant response rating, Ragweed [9, 18] | Plant response rating, Ragweed [9, 21] | Plant response rating, Ragweed [9, 20] | Ragweed plant response rating ([9]; Preemergence, scale 0 to 100) | Plant response rating, Foxtail, Giant [10, 18] | Plant response rating, Foxtail, Giant [10, 19] | Foxtail, Giant plant response rating ([10]; Preemergence, scale 0 to 100) | Lambsquarters plant response rating ([11]; postemergence, 0-100 scale) | Plant response rating, Lambsquarters [11, 15] | Plant response rating, Lambsquarters [11, 16] | Plant response rating, Lambsquarters [11, 17] | Plant response rating, Lambsquarters [11, 18] | Plant response rating, Lambsquarters [11, 19] | Plant response rating, Lambsquarters [11, 20] | Lambsquarters plant response rating ([11]; Preemergence, scale 0 to 100) | Plant response rating, Crabgrass, Large [12, 18] | Plant response rating, Crabgrass, Large [12, 19] | Crabgrass, Large plant response rating ([12]; Preemergence, scale 0 to 100) | Plant response rating, Barley ([13]; 16 g ai/ha) | Plant response rating, Barley ([13]; 31 g ai/ha) | Plant response rating, Barley ([13]; 62 g ai/ha)
98: Plant response rating, Goosegrass [7, 17] | Plant response rating, Foxtail, Giant [10, 20]
95: Plant response rating, Blackgrass [1, 16] | Plant response rating, Blackgrass [1, 17] | Blackgrass plant response rating ([1]; Preemergence, scale 0 to 100) | Plant response rating, Oat, Wild (wild oat (Avena fatua); [21]) | Plant response rating, Oat, Wild (wild oat (Avena fatua); [20]) | Plant response rating, Johnsongrass [5, 20]
100: Plant response rating, Blackgrass [1, 18] | Plant response rating, Blackgrass [1, 19] | Plant response rating, Blackgrass [1, 20] | Oat, Wild plant response rating (wild oat (Avena fatua); postemergence, 0-100 scale) | Plant response rating, Oat, Wild (wild oat (Avena fatua); [15]) | Plant response rating, Oat, Wild (wild oat (Avena fatua); [16]) | Plant response rating, Oat, Wild (wild oat (Avena fatua); [17]) | Plant response rating, Galium ([6]; 62 g ai/ha, scale 0 to 100) | Plant response rating, Wheat ([8]; Preemergence, 62 g ai/ha, 0 to 100 scale, 0 no effect, 100 complete control) | Foxtail, Giant plant response rating ([10]; postemergence, 0-100 scale) | Plant response rating, Foxtail, Giant [10, 15] | Plant response rating, Foxtail, Giant [10, 16] | Plant response rating, Foxtail, Giant [10, 17] | Plant response rating, Crabgrass, Large [12, 16] | Plant response rating, Crabgrass, Large [12, 17]
10: Wheat plant response rating ([8]; Preemergence, scale 0 to 100)
75: Plant response rating, Johnsongrass [5, 17]
15: Plant response rating, Wheat [8, 18]
90: Plant response rating, Blackgrass [1, 15]
50: Johnsongrass plant response rating ([5]; postemergence, 0-100 scale) | Plant response rating, Johnsongrass [5, 15] | Plant response rating, Galium ([6]; 31 g ai/ha, 0 to 100 scale, 0 no effect, 100 complete control)
